One assay addresses T1, human CDK4/cyclin D3 (Homo sapiens, UniProt P11802).
T1 construct: made in house; host or cells: insect cells co-infected with baculovirus vectors
The assay can be described thus: Inhibition of CDK4/cyclin D retinoblastoma kinase activity (Ki; % inhibition). The class given is biochemical. The settings on record: 0.03 μM compound. Summed up: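 Insect-cell-expressed CDK4 with truncated cyclin D3 (1-264), 5 nM, phosphorylating His-tagged Rb fragment (386-928) with 25 μM [32/33P]ATP at pH 7.4, 30 °C, 20 min (60 min for tight binders). Filter capture, phosphorimager read; % inhibition at 30 nM compound, Ki from competitive or tight-binding fits.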

The next assay relates to HCT-116 cell line. The assay can be described thus: Inhibition of cell growth, MTT tetrazolium salt assay. In kind it is cell-based. Conditions: HCT-116 cells; for HCT-116 % Inhibition at 0.1 μM: 0.1 μM compound; for HCT-116 % Inhibition at 0.25 μM: 0.25 μM compound. Put shortly: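 Cells in McCoy's 5A medium were given 4 h before compound addition in 0.5% (v/v) DMSO, then incubated 3–5 days at 37 °C, 5% CO2. After 4 h with 0.2 mg/mL MTT, DMSO-solubilized formazan was read at 540 nm; 50% and 90% growth-inhibitory concentrations came from semi-log plots against vehicle controls.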
For orientation: Tetrazolium dyes change colour on reduction, which living cells bring about.

The target in a further assay is T2, CDK2/cyclin A (Homo sapiens, UniProt P24941).
T2 construct: made in house; host or cells: CDK2: insect cells (baculovirus); cyclin A: E. coli
The assay can be described thus: Inhibition of CDK2/cyclin A retinoblastoma kinase activity (Ki; % inhibition). The class given is biochemical. The settings on record: 0.03 μM compound. Put shortly:
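Radiometric filter assay of CDK2/proteolyzed cyclin A (baculovirus-expressed human CDK2, 10 or 19 nM) phosphorylating an Rb fragment with 25 μM [³²P/³³P]ATP in pH 7.4 HEPES, 2% DMSO, at 30 °C for 60 or 75 min under initial-rate conditions. Library compounds screened at 30 nM for % inhibition; apparent Ki from concentration series fit to competitive or tight-binding inhibition equations.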

T1 sequence (P11802 whole entry): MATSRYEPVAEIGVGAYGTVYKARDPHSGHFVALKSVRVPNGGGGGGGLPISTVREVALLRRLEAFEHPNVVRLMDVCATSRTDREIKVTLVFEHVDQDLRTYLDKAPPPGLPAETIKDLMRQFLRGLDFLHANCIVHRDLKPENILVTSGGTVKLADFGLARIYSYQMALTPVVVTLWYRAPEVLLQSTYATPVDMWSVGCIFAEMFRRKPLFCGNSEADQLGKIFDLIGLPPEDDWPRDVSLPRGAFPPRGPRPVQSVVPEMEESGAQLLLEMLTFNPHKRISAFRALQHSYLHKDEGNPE
T1 sequence (P30281 1-264 partner limits assumed): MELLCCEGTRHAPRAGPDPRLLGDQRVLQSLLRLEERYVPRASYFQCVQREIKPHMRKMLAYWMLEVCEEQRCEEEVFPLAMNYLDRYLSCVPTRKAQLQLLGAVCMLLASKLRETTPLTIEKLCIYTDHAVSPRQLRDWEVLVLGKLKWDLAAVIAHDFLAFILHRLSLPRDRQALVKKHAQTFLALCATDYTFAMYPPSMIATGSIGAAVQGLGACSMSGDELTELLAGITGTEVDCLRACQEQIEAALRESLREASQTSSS

As for `Nc1nc(Nc2ccc(C(=O)NCCc3ccc(Cl)cc3)cc2)sc1C(=O)c1c(F)cccc1F` [Example G266], the “CDK4 % Inhibition at 0.03 μM” value on human CDK4/cyclin D3 amounted to 7%. Besides, in the assay with HCT-116 cell line, the “HCT-116 % Inhibition at 0.1 μM” value was 28% and the “HCT-116 % Inhibition at 0.25 μM” value is on record as 30%. Besides, on CDK2/cyclin A, the “CDK2 % Inhibition at 0.03 μM” value came out at 0%.
Take `CC(C)(C)C1CCC(NC(=O)c2ccc(Nc3nc(N)c(C(=O)c4c(F)cccc4F)s3)cc2)CC1` (centres unmarked) [Example G267]: the “CDK4 % Inhibition at 0.03 μM” value at human CDK4/cyclin D3 was −14%. In addition, in the assay with HCT-116 cell line, the “HCT-116 % Inhibition at 0.1 μM” value was determined as 24% and the “HCT-116 % Inhibition at 0.25 μM” value is 44%. Further, the “CDK2 % Inhibition at 0.03 μM” value on CDK2/cyclin A was −23%.
Take `Nc1nc(Nc2ccc(C(=O)NCCc3ccncc3)cc2)sc1C(=O)c1c(F)cccc1F` [Example G268]: the “CDK4 % Inhibition at 0.03 μM” value at human CDK4/cyclin D3 is given as 2%. In addition, in the assay on HCT-116 cell line, the “HCT-116 % Inhibition at 0.1 μM” value is recorded as 26% and the “HCT-116 % Inhibition at 0.25 μM” value worked out at 63%. For the same compound, at CDK2/cyclin A, the “CDK2 % Inhibition at 0.03 μM” value is given as −11%.
The like results for `Nc1nc(Nc2ccc(C(=O)NCc3ccccc3C(F)(F)F)cc2)sc1C(=O)c1c(F)cccc1F` [Example G269] were, in that order, 2%, 19%, 65% and 6%.
As for `CC(C)(C)c1ccc(CNC(=O)c2ccc(Nc3nc(N)c(C(=O)c4c(F)cccc4F)s3)cc2)cc1` [Example G270], at human CDK4/cyclin D3, the “CDK4 % Inhibition at 0.03 μM” value amounted to 17%. In the assay on HCT-116 cell line, the “HCT-116 % Inhibition at 0.1 μM” value was 15% and the “HCT-116 % Inhibition at 0.25 μM” value is listed as 45%. Moreover, on CDK2/cyclin A, the “CDK2 % Inhibition at 0.03 μM” value amounted to 26%.
With `Nc1nc(Nc2ccc(C(=O)NCCc3c[nH]c4ccccc34)cc2)sc1C(=O)c1c(F)cccc1F` [Example G271], the “CDK4 % Inhibition at 0.03 μM” value at human CDK4/cyclin D3 was 27%. Also, in the assay with HCT-116 cell line, the “HCT-116 % Inhibition at 0.1 μM” value came out at 8% and the “HCT-116 % Inhibition at 0.25 μM” value worked out at 49%. For the same compound, the “CDK2 % Inhibition at 0.03 μM” value on CDK2/cyclin A amounted to 32%.
The like results for `C=CCN(CC=C)C(=O)c1ccc(Nc2nc(N)c(C(=O)c3c(F)cccc3F)s2)cc1` [Example G272] were, in that order, 0%, 10%, 47% and −20%.
For `CC1CC(C)CN(C(=O)c2ccc(Nc3nc(N)c(C(=O)c4c(F)cccc4F)s3)cc2)C1` (centres unmarked) [Example G273], the “CDK4 % Inhibition at 0.03 μM” value on human CDK4/cyclin D3 was −2%. In the assay on HCT-116 cell line, the “HCT-116 % Inhibition at 0.1 μM” value stood at 17% and the “HCT-116 % Inhibition at 0.25 μM” value is on record as 45%. Further, at CDK2/cyclin A, the “CDK2 % Inhibition at 0.03 μM” value is −33%.
The like results for `Nc1nc(Nc2ccc(C(=O)NCCCCCO)cc2)sc1C(=O)c1c(F)cccc1F` [Example G274] were, in that order, 5%, 15%, 47% and −4%.
Turning to `Cc1ccc(CNC(=O)c2ccc(Nc3nc(N)c(C(=O)c4c(F)cccc4F)s3)cc2)cc1Cl` [Example G275], the “CDK4 % Inhibition at 0.03 μM” value on human CDK4/cyclin D3 turned out to be 19%. Also, in the assay with HCT-116 cell line, the “HCT-116 % Inhibition at 0.1 μM” value came to 25% and the “HCT-116 % Inhibition at 0.25 μM” value was determined as 63%. At CDK2/cyclin A, the “CDK2 % Inhibition at 0.03 μM” value amounted to 27%.
Turning to `Nc1nc(Nc2ccc(C(=O)NCCc3cccc(C(F)(F)F)c3)cc2)sc1C(=O)c1c(F)cccc1F` [Example G276], the “CDK4 % Inhibition at 0.03 μM” value at human CDK4/cyclin D3 is on record as −2%. In addition, in the assay on HCT-116 cell line, the “HCT-116 % Inhibition at 0.1 μM” value was determined as 25% and the “HCT-116 % Inhibition at 0.25 μM” value came out at 58%. Also, at CDK2/cyclin A, the “CDK2 % Inhibition at 0.03 μM” value is listed as 2%.
For the compound `Nc1nc(Nc2ccc(C(=O)NCc3ccncc3)cc2)sc1C(=O)c1c(F)cccc1F` [Example G277], on human CDK4/cyclin D3, the “CDK4 % Inhibition at 0.03 μM” value was 26%. Further, in the assay on HCT-116 cell line, the “HCT-116 % Inhibition at 0.1 μM” value is on record as 11% and the “HCT-116 % Inhibition at 0.25 μM” value is 56%. At CDK2/cyclin A, the “CDK2 % Inhibition at 0.03 μM” value amounted to 8%.
For `Nc1nc(Nc2ccc(C(=O)NCc3ccc(F)cc3Cl)cc2)sc1C(=O)c1c(F)cccc1F` [Example G278], in that order: 27%, 6%, 76% and 25%.
The like results for `Nc1nc(Nc2ccc(C(=O)NCC(O)CO)cc2)sc1C(=O)c1c(F)cccc1F` (centres unmarked) [Example G279] were, in that order, 17%, 2%, 52% and −2%.
Turning to `Cc1cccc(NC(=O)c2ccc(Nc3nc(N)c(C(=O)c4c(F)cccc4F)s3)cc2)c1` [Example G280], at human CDK4/cyclin D3, the “CDK4 % Inhibition at 0.03 μM” value came out at 9%. In the assay with HCT-116 cell line, the “HCT-116 % Inhibition at 0.1 μM” value is listed as 7% and the “HCT-116 % Inhibition at 0.25 μM” value turned out to be 70%. Also, at CDK2/cyclin A, the “CDK2 % Inhibition at 0.03 μM” value is −7%.
The like results for `Nc1nc(Nc2ccc(C(=O)Nc3ccc(Cl)nc3)cc2)sc1C(=O)c1c(F)cccc1F` [Example G281] were, in that order, 12%, 6%, 63% and −9%.
Consider `C#CCN(C)C(=O)c1ccc(Nc2nc(N)c(C(=O)c3c(F)cccc3F)s2)cc1` [Example G282], for which the “CDK4 % Inhibition at 0.03 μM” value at human CDK4/cyclin D3 was found to be 6%. Also, in the assay with HCT-116 cell line, the “HCT-116 % Inhibition at 0.1 μM” value is listed as 1% and the “HCT-116 % Inhibition at 0.25 μM” value is listed as 56%. Besides, on CDK2/cyclin A, the “CDK2 % Inhibition at 0.03 μM” value was −14%.
The like results for `CCSCCNC(=O)c1ccc(Nc2nc(N)c(C(=O)c3c(F)cccc3F)s2)cc1` [Example G283] were, in that order, 10%, 16%, 75% and −6%.
For the compound `Cc1ccc(NC(=O)c2ccc(Nc3nc(N)c(C(=O)c4c(F)cccc4F)s3)cc2)c(F)c1` [Example G284], on human CDK4/cyclin D3, the “CDK4 % Inhibition at 0.03 μM” value is −12%. In the assay on HCT-116 cell line, the “HCT-116 % Inhibition at 0.1 μM” value came out at 4% and the “HCT-116 % Inhibition at 0.25 μM” value stood at 69%. For the same compound, the “CDK2 % Inhibition at 0.03 μM” value at CDK2/cyclin A was −30%.
`CCOc1ccccc1CNC(=O)c1ccc(Nc2nc(N)c(C(=O)c3c(F)cccc3F)s2)cc1` [Example G285]: on human CDK4/cyclin D3, the “CDK4 % Inhibition at 0.03 μM” value came out at 18%. Moreover, in the assay with HCT-116 cell line, the “HCT-116 % Inhibition at 0.1 μM” value was 1% and the “HCT-116 % Inhibition at 0.25 μM” value was found to be 60%. Moreover, on CDK2/cyclin A, the “CDK2 % Inhibition at 0.03 μM” value is 13%.
Regarding `Nc1nc(Nc2ccc(C(=O)NCc3cc(Cl)ccc3Cl)cc2)sc1C(=O)c1c(F)cccc1F` [Example G286], the “CDK4 % Inhibition at 0.03 μM” value at human CDK4/cyclin D3 is on record as 25%. Further, in the assay on HCT-116 cell line, the “HCT-116 % Inhibition at 0.1 μM” value worked out at 10% and the “HCT-116 % Inhibition at 0.25 μM” value is recorded as 60%. The “CDK2 % Inhibition at 0.03 μM” value at CDK2/cyclin A was 23%.
The like results for `Nc1nc(Nc2ccc(C(=O)Nc3cccc(Br)c3)cc2)sc1C(=O)c1c(F)cccc1F` [Example G287] were, in that order, 7%, 9%, 32% and −8%.
Take `Nc1nc(Nc2ccc(C(=O)Nc3ccc(Cl)cc3)cc2)sc1C(=O)c1c(F)cccc1F` [Example G288]: the “CDK4 % Inhibition at 0.03 μM” value on human CDK4/cyclin D3 is given as 11%. For the same compound, in the assay on HCT-116 cell line, the “HCT-116 % Inhibition at 0.1 μM” value turned out to be 16% and the “HCT-116 % Inhibition at 0.25 μM” value is 60%. Besides, at CDK2/cyclin A, the “CDK2 % Inhibition at 0.03 μM” value is reported as −10%.
With `Nc1nc(Nc2ccc(C(=O)Nc3cccc(F)c3)cc2)sc1C(=O)c1c(F)cccc1F` [Example G289], the “CDK4 % Inhibition at 0.03 μM” value at human CDK4/cyclin D3 is listed as 9%. Besides, in the assay with HCT-116 cell line, the “HCT-116 % Inhibition at 0.1 μM” value is reported as 7% and the “HCT-116 % Inhibition at 0.25 μM” value was 62%. For the same compound, the “CDK2 % Inhibition at 0.03 μM” value on CDK2/cyclin A is recorded as −6%.
The like results for `CCN(C)C(=O)c1ccc(Nc2nc(N)c(C(=O)c3c(F)cccc3F)s2)cc1` [Example G290] were, in that order, −2%, 2%, 39% and −12%.
`Nc1nc(Nc2ccc(C(=O)NCCCCc3ccccc3)cc2)sc1C(=O)c1c(F)cccc1F` [Example G291]: the “CDK4 % Inhibition at 0.03 μM” value at human CDK4/cyclin D3 came to 14%. In the assay on HCT-116 cell line, the “HCT-116 % Inhibition at 0.1 μM” value was found to be 5% and the “HCT-116 % Inhibition at 0.25 μM” value is given as 53%. The “CDK2 % Inhibition at 0.03 μM” value on CDK2/cyclin A came out at 6%.
For `Nc1nc(Nc2ccc(C(=O)Nc3cccc(OC(F)(F)F)c3)cc2)sc1C(=O)c1c(F)cccc1F` [Example G292], in that order: −15%, 0%, 60% and −31%.
For `Nc1nc(Nc2ccc(C(=O)NCc3cccc(C(F)(F)F)c3)cc2)sc1C(=O)c1c(F)cccc1F` [Example G293], in that order: 32%, 10%, 56% and 23%.
For `Cc1cccc(CNC(=O)c2ccc(Nc3nc(N)c(C(=O)c4c(F)cccc4F)s3)cc2)c1C` [Example G294], in that order: 29%, 15%, 74% and 30%.

Values taken from US6720346B2, “Thiazole benzamide derivatives and pharmaceutical compositions for inhibiting cell proliferation” (Agouron Pharmaceuticals, Inc., priority 2001, dated 2004).
